We go through two molecules from patent US12037327B2, “Compounds and methods targeting GPER for treatment of diseases associated with calcium” (Saint Louis University, priority 2018, dated 2024).

Entries after “also recorded” stand apart in the source; their conditions may differ.

One test concerns the target T1, ERα (Homo sapiens, UniProt P03372).
T1 construct: purchased Invitrogen (Carlsbad, CA)
T1 sequence (P03372 1-595): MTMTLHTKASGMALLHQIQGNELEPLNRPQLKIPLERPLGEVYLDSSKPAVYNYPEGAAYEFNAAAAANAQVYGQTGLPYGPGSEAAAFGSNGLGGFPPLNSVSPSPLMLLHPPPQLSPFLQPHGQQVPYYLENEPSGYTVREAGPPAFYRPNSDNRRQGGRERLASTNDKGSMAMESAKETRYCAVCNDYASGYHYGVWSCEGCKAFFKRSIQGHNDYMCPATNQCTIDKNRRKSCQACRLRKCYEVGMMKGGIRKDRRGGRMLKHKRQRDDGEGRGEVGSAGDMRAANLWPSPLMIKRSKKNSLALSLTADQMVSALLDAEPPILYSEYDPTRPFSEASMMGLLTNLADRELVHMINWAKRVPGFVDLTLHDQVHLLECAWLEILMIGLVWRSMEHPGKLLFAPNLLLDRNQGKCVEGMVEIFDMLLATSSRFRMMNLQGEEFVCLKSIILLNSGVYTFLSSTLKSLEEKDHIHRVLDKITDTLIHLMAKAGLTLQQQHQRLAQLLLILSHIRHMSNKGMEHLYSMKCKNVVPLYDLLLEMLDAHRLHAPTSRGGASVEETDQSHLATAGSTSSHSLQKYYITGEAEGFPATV
Description: ERα PolarScreen fluorescence polarization competitor assay. The class given is binding. The following applies: duplicate. How it is done: FIGS. 3A & 3B show fluorescence polarization studies performed on classical estrogen receptors, ERα and ERβ, to determine off-target binding. Studies were performed in duplicate. […] Overall, it appears that compound 1 binds greater to ERβ than ERα and compound 2 binds to ERα but not ERβ.
The ERα and ERβ PolarScreen™ Competitor Assays by Invitrogen (Carlsbad, CA) were purchased and utilized to determine binding to the classical nuclear esetrogen recetors, ERα and ERβ. The concentrations of the ERα and ERβ enzyme varied between the two assays. A 4× sample of ERα was prepared for a final concentration of 75 nM. Conversely, a 4× sample of ERβ was prepared for a final concentration of 23 nM within the assay. For both ERα and ERβ a 4× aliquot of Fluoromone was prepared for a final assay concentration of 4.5 nM. Despite the differences in concentration of ERα and ERβ, the binding assay protocol for the two different enzymes remained the same. Drug dilutions were prepared for a 2× dilution in the ER specific buffer that was provided within the assay kit. In addition to the drug dilutions a 2× aliquot of Fluoromone was prepared by adding 10 uL of 4× with 10 uL of ER specific buffer. A 2× dilution of enzyme and fluorophore was achieved by adding equal portions of each to each other. […] The plate was incubated at RT for 2 hours before being read with λex 485 nm and λem 535 nm.

Test [1] deals with T2, G protein-coupled estrogen receptor (GPER) (Homo sapiens, UniProt Q99527).
T2 construct: siRNA was used to knock-down expression of GPER; endogenous in cells; host or cells: HL-60 (human myelocytic leukemia) cells
The test can be described thus: HTRF cAMP formation assay in HL-60 cells. The class given is cell-based. Particulars: values with * unexplained. On the procedure:
For cAMP formation studies to determine potentcy, a homogeneous time resolved fluorescence (HTRF®) components for cAMP was purchased by CisBio (Bedford, MA). HL-60 cells were grown in 10% charcoal-stripped RPMI media for 72 hours prior to assays. Cells were centrifuged and counted with a hemocytometer from Hausser Scientific (Horsham, PA). The total number of cells needed to complete the assay was determined based upon 8,000 cells/well. The determined number of cells was diluted in 5:1 (5×) stimulation buffer contain 500 μM of 3-isobutyl-1-methylxanthine (IBMX) (Sigma Aldrich, Saint Louis, MO). To an HTRF 96-well low volume white plate from CisBio, 2 μL of (5×) agonist was added to the designated wells, followed by 8 μL of col cell suspension. Two controls were run during the experiment to establish basal cAMP formation and […] cAMP with the use of 20 μM forskolin. Cells were covered with a clear plastic film and incubated at 37° C. for 15 mins. During the 15 minutes incubation a 4:1 solution of lysis buffer to dye was prepared individually. After the 15 minute incubation 5 μL of lysis buffer/cAMP-d2 (acceptor) and 5 μL of lysis buffer/monocolonal anti-cAMP Eu3^+ cryptate (donor) were added to all wells. Once added, the plate was sealed, covered with aluminum foil, and incubated at room temperature for 30 mins. After the allotted time cells were read using Flexstation3 and with λex 314 nm and λem 665 nm/λem 620. Antagonism assay format varied slightly. […] To the plate, 2 μL of (5×) antagonist were added dose wise followed by the addition of 6 μL of cold cell suspension to all wells. Controls from the agonism assay remained the same in the antagonism assay. Cells and antagonists were incubated for 20 minutes at 37° C. […] Similar to the agonism assay a 4:1 ratio of lysis buffer to donor/acceptor were prepared. Following the previous incubation period, 5 μL of lysis buffer/cAMP-d2 (acceptor) and 5 μL of lysis buffer/monocolonal anti-cAMP Eu3^+ cryptate (donor) were added to all wells. Cells were allowed to equilibrate at room temperature for 30 minutes before being read at λex 314 nm and λem 665 nm/λem 620.
Calcium mobilization signal was assessed with the use of 0.1% pluronic acid and 5 μM Indo-1AM, a ratiometric dye. The EC50 values were determined based upon triplicate runs on triplicate plates. […] Cyclic AMP formation through the Gi/o-pathway was monitored utilizing a homogenous time-resolved fluorescence assay purchased from CisBio. A triplicate was performed and an EC50 value was calculated. […] The EC50 values were determined based upon triplicate runs on a triplicate plates.
For orientation: Time-resolved FRET reads energy transfer from a long-lived donor to a nearby acceptor.

The subject of test [2] is E18 embryonic rat cortical neurons. The test can be described thus: neurite outgrowth in E18 embryonic rat neurons. The format is cell-based.

T2 sequence (Q99527 whole entry): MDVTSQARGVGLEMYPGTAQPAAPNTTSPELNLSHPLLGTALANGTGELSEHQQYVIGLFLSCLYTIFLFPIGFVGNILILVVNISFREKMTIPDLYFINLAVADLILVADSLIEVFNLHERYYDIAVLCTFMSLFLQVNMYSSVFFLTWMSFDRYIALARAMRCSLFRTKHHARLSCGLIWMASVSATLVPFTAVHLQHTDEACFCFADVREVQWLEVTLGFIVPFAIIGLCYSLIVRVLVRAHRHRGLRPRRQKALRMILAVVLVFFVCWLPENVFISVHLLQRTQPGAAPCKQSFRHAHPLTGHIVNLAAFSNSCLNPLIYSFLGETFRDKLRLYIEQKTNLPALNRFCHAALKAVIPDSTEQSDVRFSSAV

One may read the EC50 as the concentration needed to bring the measured effect to its halfway point. Read a high EC50 as a less potent agent. As to `CC(C)c1ccc(NCc2ccc(CO)o2)c(C2CCCCC2)c1` [Compound 1], the “binding to ERα” value on ERα is reported as “exhibit binding; also recorded: significant binding”. In addition, it took 1.59 µM to reach a half-maximal effect in test [1] (EC50).
With `CC(C)c1ccc(NCc2ccoc2)c(C2CCCCC2)c1` [Compound 2], the “binding to ERα” value at ERα is given as “exhibit binding; also recorded: significant binding”. For the same molecule, the “neurite outgrowth with GPER antagonist G-15” value in test [2] (100 nM agonist plus 100 nM G-15) was “reduction in signal”. Also, the neurite outgrowth entry in test [2] (100 nM agonist, 72 hours, compared to vehicle control) was “statistically significant increase”. The EC50 in test [1] amounted to 1.19 µM.
